Assay results from ChEMBL document CHEMBL3217477, “Synthesis and biological evaluation of substituted - and -2,3-dihydrofuran naphthoquinones as potent anticandidal agents” (Medchemcomm, 2010).
Converted amounts (≈) assume the structure as drawn.

What was measured:
[1] = Hemolytic activity in Swiss mouse erythrocytes at 50 ug/mL after 1 hr by spectrophotometric analysis relative to control; type: ADME, cell-based, Erythrocyte; settings: read-out: Activity
Candida dubliniensis [2] = experiment: Antifungal activity against Candida dubliniensis assessed as growth inhibition at 250 ug/mL after 24 hrs by hole plate diffusion method; type: functional; settings: read-out: IZ
Kluyveromyces marxianus [3] = experiment: Antifungal activity against Candida kefyr assessed as growth inhibition after 24 hrs by microbroth dilution method; type: functional
Candida tropicalis [4] = experiment: Antifungal activity against Candida tropicalis assessed as growth inhibition after 24 hrs by microbroth dilution method; type: functional
Candida albicans [5] = experiment: Antifungal activity against Candida albicans assessed as growth inhibition after 24 hrs by microbroth dilution method; type: functional
Candida parapsilosis [6] = experiment: Antifungal activity against Candida parapsilosis assessed as growth inhibition at 250 ug/mL after 24 hrs by hole plate diffusion method; type: functional; settings: Lodderomyces parapsilosis, read-out: IZ
Candida parapsilosis [7] = experiment: Antifungal activity against Candida parapsilosis assessed as growth inhibition after 24 hrs by microbroth dilution method; type: functional; settings: Lodderomyces parapsilosis
Candida tropicalis [8] = experiment: Antifungal activity against Candida tropicalis assessed as growth inhibition at 250 ug/mL after 24 hrs by hole plate diffusion method; type: functional; settings: read-out: IZ
Pichia kudriavzevii [9] = experiment: Antifungal activity against Candida krusei assessed as growth inhibition after 24 hrs by microbroth dilution method; type: functional
Candida albicans [10] = experiment: Antifungal activity against Candida albicans assessed as growth inhibition at 250 ug/mL after 24 hrs by hole plate diffusion method; type: functional; settings: read-out: IZ
Kluyveromyces marxianus [11] = experiment: Antifungal activity against Candida kefyr assessed as growth inhibition at 250 ug/mL after 24 hrs by hole plate diffusion method; type: functional; settings: read-out: IZ
[12] = Cytotoxicity against mouse NIH/3T3 cells assessed as dead cells at 12.5 ug/mL after 72 hrs by Alamar Blue assay relative to control; type: cell-based; settings: nih3t3, 72 h
Pichia kudriavzevii [13] = experiment: Antifungal activity against Candida krusei assessed as growth inhibition at 250 ug/mL after 24 hrs by hole plate diffusion method; type: functional; settings: read-out: IZ
Candida dubliniensis [14] = experiment: Antifungal activity against Candida dubliniensis assessed as growth inhibition after 24 hrs by microbroth dilution method; type: functional
Candida albicans [15] = experiment: Antifungal activity against Candida albicans ATCC 90028 assessed as growth inhibition after 24 hrs by microbroth dilution method; type: functional; settings: ATCC 90028, 24 h

With CC1(c2ccccc2)CC2=C(O1)c1ccccc1C(=O)C2=O (stereo not given) as the compound, how does the hemolysis at 1 h, 50 ug/mL [1] read?
Its hemolysis at 1 h, 50 ug/mL is -1.2%.

And the zone of inhibition at 250 µg/mL (Candida dubliniensis [2])?
The zone of inhibition at 250 µg/mL was 12.9 mm.

What about the MIC (Kluyveromyces marxianus [3]) of the same compound?
The MIC was 11.3 µM (≈ 3.28 µg/mL).

What about the MIC (Candida tropicalis [4]) of the same compound?
Its MIC is 11.3 µM (≈ 3.28 µg/mL).

And the MIC (Candida albicans [5])?
The MIC was 45.2 µM (≈ 13.1 µg/mL).

What about the zone of inhibition at 250 µg/mL (Candida parapsilosis [6]) of the same compound?
The zone of inhibition at 250 µg/mL was 7.34 mm.

And the MIC (Candida parapsilosis [7])?
The MIC was 45.2 µM (≈ 13.1 µg/mL).

And the zone of inhibition at 250 µg/mL (Candida tropicalis [8])?
The zone of inhibition at 250 µg/mL was 3.48 mm.

What about the MIC (Pichia kudriavzevii [9]) of the same compound?
Its MIC is 22.6 µM (≈ 6.57 µg/mL).

What about the zone of inhibition at 250 µg/mL (Candida albicans [10]) of the same compound?
The zone of inhibition at 250 µg/mL was 8.41 mm.

What about the zone of inhibition at 250 µg/mL (Kluyveromyces marxianus [11]) of the same compound?
The zone of inhibition at 250 µg/mL was 10.1 mm.

What about the mortality [12] of the same compound?
Its mortality is 0%.

What about the zone of inhibition at 250 µg/mL (Pichia kudriavzevii [13]) of the same compound?
The zone of inhibition at 250 µg/mL was 8.52 mm.

What about the MIC (Candida dubliniensis [14]) of the same compound?
The MIC was 5.65 µM (≈ 1.64 µg/mL).

What about the MIC (Candida albicans [15]) of the same compound?
The MIC was 45.2 µM (≈ 13.1 µg/mL).

What does the source list for CC1(c2ccccc2)CC2=C(O1)C(=O)c1ccccc1C2=O (stereo not given)?
hemolysis at 1 h, 50 ug/mL [1]: 4.54%; zone of inhibition at 250 µg/mL (Candida dubliniensis [2]): 4.63 mm; MIC (Kluyveromyces marxianus [3]): 90.5 µM (≈ 26.3 µg/mL); MIC (Candida tropicalis [4]): 45.2 µM (≈ 13.1 µg/mL); MIC (Candida albicans [5]): 45.2 µM (≈ 13.1 µg/mL); zone of inhibition at 250 µg/mL (Candida parapsilosis [6]): 0 mm; MIC (Candida parapsilosis [7]): 45.2 µM (≈ 13.1 µg/mL); zone of inhibition at 250 µg/mL (Candida tropicalis [8]): 3.83 mm; MIC (Pichia kudriavzevii [9]): 172 µM (≈ 50 µg/mL); zone of inhibition at 250 µg/mL (Candida albicans [10]): 16.1 mm; zone of inhibition at 250 µg/mL (Kluyveromyces marxianus [11]): 7.42 mm; mortality [12]: 0%; zone of inhibition at 250 µg/mL (Pichia kudriavzevii [13]): 7.05 mm; MIC (Candida dubliniensis [14]): 45.2 µM (≈ 13.1 µg/mL); MIC (Candida albicans [15]): 45.2 µM (≈ 13.1 µg/mL)

Which results are given for CC1(C)CC2=C(O1)C(=O)c1ccccc1C2=O?
hemolysis at 1 h, 50 ug/mL [1]: 2.1%; zone of inhibition at 250 µg/mL (Candida dubliniensis [2]): 15.2 mm; MIC (Kluyveromyces marxianus [3]): 27.4 µM (≈ 6.25 µg/mL); MIC (Candida tropicalis [4]): 3.42 µM (≈ 0.781 µg/mL); MIC (Candida albicans [5]): 0.54 µM (≈ 0.123 µg/mL); zone of inhibition at 250 µg/mL (Candida parapsilosis [6]): 9.29 mm; MIC (Candida parapsilosis [7]): 110 µM (≈ 25 µg/mL); zone of inhibition at 250 µg/mL (Candida tropicalis [8]): 5.63 mm; MIC (Pichia kudriavzevii [9]): 13.4 µM (≈ 3.06 µg/mL); zone of inhibition at 250 µg/mL (Candida albicans [10]): 21.3 mm; zone of inhibition at 250 µg/mL (Kluyveromyces marxianus [11]): 18.4 mm; mortality [12]: 20%; zone of inhibition at 250 µg/mL (Pichia kudriavzevii [13]): 14.6 mm; MIC (Candida dubliniensis [14]): 13.7 µM (≈ 3.12 µg/mL); MIC (Candida albicans [15]): 54.8 µM (≈ 12.5 µg/mL)
